Calls of active or inactive are those of the source. The calls are words filed in the database; no cut-off is given here.
How the values were obtained:
[1] = Selectivity index, ratio of Ki for ERalpha (unknown origin) to Ki for ERbeta (unknown origin)
MDA-MB-231 = test: cells; settings: Homo sapiens, MDA-MB-231, 72 h
T47D [2] = test: cells; settings: Homo sapiens, 72 h
[3] = Selectivity ratio of relative binding affinity for ERalpha (unknown origin) to relative binding affinity to ERbeta (unknown origin)
MCF7 [4] = test: cells; settings: Homo sapiens, MCF7, 72 h
T47D [5] = test: cells; settings: Homo sapiens, 72 h; remark: listed apart in the source
Estrogen receptor = target: T1, Estrogen receptor (Homo sapiens, UniProt P03372)
T1 sequence (P03372 whole entry): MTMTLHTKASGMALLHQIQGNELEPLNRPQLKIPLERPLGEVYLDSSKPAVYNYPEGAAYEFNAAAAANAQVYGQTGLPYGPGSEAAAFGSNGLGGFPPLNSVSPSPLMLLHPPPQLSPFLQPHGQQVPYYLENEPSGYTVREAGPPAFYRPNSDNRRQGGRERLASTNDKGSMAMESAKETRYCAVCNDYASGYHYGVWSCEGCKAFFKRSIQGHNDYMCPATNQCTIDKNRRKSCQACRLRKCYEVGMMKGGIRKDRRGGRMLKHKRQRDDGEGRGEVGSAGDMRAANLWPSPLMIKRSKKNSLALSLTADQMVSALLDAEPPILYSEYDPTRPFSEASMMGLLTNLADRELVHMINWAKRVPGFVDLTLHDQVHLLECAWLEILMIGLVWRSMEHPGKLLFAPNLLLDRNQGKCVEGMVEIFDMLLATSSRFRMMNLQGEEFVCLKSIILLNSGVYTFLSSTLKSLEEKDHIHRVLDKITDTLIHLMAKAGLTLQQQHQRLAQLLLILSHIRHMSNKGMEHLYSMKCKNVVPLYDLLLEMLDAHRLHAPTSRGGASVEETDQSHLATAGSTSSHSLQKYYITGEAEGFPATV

T47D [6] = test: cells; settings: Homo sapiens, 72 h; remark: listed apart in the source
Estrogen receptor beta [7] = target: T2, Estrogen receptor beta (Homo sapiens, UniProt Q92731)
T2 sequence (Q92731 whole entry): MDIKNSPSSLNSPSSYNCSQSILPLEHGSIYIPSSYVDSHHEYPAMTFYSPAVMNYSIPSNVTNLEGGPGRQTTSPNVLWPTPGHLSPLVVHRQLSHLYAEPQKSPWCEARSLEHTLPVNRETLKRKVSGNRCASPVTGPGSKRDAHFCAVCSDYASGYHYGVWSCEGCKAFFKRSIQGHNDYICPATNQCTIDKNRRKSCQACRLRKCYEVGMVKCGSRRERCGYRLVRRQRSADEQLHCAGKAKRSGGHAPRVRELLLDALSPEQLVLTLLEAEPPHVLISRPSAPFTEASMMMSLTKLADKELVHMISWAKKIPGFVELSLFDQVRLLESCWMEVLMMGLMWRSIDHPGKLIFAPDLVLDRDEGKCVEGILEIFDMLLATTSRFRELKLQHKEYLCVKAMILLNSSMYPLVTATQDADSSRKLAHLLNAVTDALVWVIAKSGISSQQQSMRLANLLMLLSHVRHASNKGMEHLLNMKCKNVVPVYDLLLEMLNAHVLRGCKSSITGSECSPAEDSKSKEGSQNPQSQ

Estrogen receptor beta [8] = target: T2, Estrogen receptor beta; test: Binding affinity to ERbeta (unknown origin) assessed as relative binding affinity incubated for 2 hrs by fluorescence polarization assay relative to estradiol
in vitro = settings: human, MCF-10A cells
[9] = target: Protein cereblon/Estrogen receptor (Homo sapiens) (UniProt P03372+Q96SW2); test: PROTAC activity at CRBN/wild type ERalpha in ER-positive human MCF7 cells assessed as induction of ERalpha degradation at 1 uM incubated for 12 hrs by Western blot analysis; assay type: cell-based
Sequence of Protein cereblon/Estrogen receptor (Homo sapiens) (Q96SW2 whole entry, looked up, one chain of several): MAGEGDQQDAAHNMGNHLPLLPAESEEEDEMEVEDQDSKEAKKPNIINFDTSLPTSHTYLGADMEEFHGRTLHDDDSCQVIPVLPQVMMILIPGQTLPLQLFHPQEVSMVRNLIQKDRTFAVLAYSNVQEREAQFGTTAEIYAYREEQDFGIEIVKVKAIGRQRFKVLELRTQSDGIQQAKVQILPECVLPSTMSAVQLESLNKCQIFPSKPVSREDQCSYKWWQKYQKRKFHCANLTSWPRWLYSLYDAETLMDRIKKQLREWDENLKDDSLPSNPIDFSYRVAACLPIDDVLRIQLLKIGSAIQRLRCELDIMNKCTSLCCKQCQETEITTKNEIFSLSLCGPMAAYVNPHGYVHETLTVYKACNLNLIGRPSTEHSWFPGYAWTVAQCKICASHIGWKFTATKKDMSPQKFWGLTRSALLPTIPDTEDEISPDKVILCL

cells = settings: Homo sapiens, Tamoxifen-resistant LCC2 cell, 72 h
[10] = target: T3, von Hippel-Lindau disease tumor suppressor/Estrogen receptor (Homo sapiens) (UniProt P03372+P40337); test: PROTAC activity at VHL/wild type ERalpha in ER-positive human MCF7 cells assessed as induction of ERalpha degradation at 1 uM incubated for 12 hrs by Western blot analysis; assay type: cell-based
T3 sequence (P40337 whole entry, looked up, one chain of several): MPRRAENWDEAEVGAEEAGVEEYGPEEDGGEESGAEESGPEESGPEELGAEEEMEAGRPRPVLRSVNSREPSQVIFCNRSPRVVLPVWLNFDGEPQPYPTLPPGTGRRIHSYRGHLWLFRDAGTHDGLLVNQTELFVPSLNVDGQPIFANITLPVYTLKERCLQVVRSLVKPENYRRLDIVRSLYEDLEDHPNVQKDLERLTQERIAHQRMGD

[11] = target: T3, von Hippel-Lindau disease tumor suppressor/Estrogen receptor (Homo sapiens); test: PROTAC activity at VHL/ERalpha in ER-positive human MCF7 cells assessed as induction of ERalpha degradation at 1 to 5 uM incubated for 12 hrs by Western blot analysis; assay type: cell-based; settings: dose 1-5 µM
MCF7 [12] = test: Antitumor activity against human tamoxifen-sensitive MCF7 cells xenografted in BALB/c nude mouse assessed as inhibition of tumor growth at 5 micromol/kg, ip administered once every 2 days and measured every 2 days; assay type: functional, organism-based; settings: dose 5.0 µmol/kg
MCF7 [13] = test: Antitumor activity against human tamoxifen-sensitive MCF7 cells xenografted in BALB/c nude mouse assessed as reduction in cell proliferation at 5 micromol/kg, ip administered once every 2 days by ki67 staining based analysis; assay type: functional, organism-based; settings: dose 5.0 µmol/kg
Mus musculus = test: In vivo protac activity at VHL/ERalpha in BALB/c nude mouse xenografted with human tamoxifen-sensitive MCF7 cells assessed as reduction in ERalpha protein levels in tumor at 5 micromol/kg, ip administered once every 2 days by Western blot analysis; assay type: functional, organism-based; settings: dose 5.0 µmol/kg
MCF7 [14] = test: Antitumor activity against human tamoxifen-sensitive MCF7 cells xenografted in BALB/c nude mouse assessed as increase in tumor necrosis area at 5 micromol/kg, ip administered once every 2 days by […] staining based analysis; assay type: functional, organism-based; settings: dose 5.0 µmol/kg

Structure (SMILES): O=C(COc1cccc2c1C(=O)N(C1CCC(=O)NC1=O)C2=O)NCCCCOc1ccc(N(CC(F)(F)F)S(=O)(=O)C2CC3OC2C(c2ccc(O)cc2)=C3c2ccc(O)cc2)cc1 (configuration not stated)
- Ratio Ki [1]: 3.32
- IC50 (MDA-MB-231): > 100 µM
- IC50 (T47D [2]): > 50 µM
- Selectivity ratio [3]: 0.86
- IC50 (MCF7 [4]): > 50 µM
- IC50 (T47D [5]): > 50 µM
- Ki (Estrogen receptor): 3.38 µM
- IC50 (T47D [6]): > 50 µM
- Ki (Estrogen receptor beta [7]): 11.2 µM
- RBA (Estrogen receptor beta [8]): 0.07%
- IC50 at 72 h (in vitro): > 100 µM
- Activity [9]: inactive
- IC50 (cells): > 50 µM

Structure (SMILES): O=C(COc1cccc2c1C(=O)N(C1CCC(=O)NC1=O)C2=O)NCCCCCCOc1ccc(N(CC(F)(F)F)S(=O)(=O)C2CC3OC2C(c2ccc(O)cc2)=C3c2ccc(O)cc2)cc1 (configuration not stated)
- Ratio Ki [1]: 4.26
- IC50 (MDA-MB-231): > 100 µM
- IC50 (T47D [2]): > 30 µM
- Selectivity ratio [3]: 1.1
- IC50 (MCF7 [4]): 11 µM
- IC50 (T47D [5]): > 30 µM
- Ki (Estrogen receptor): 1.85 µM
- IC50 (T47D [6]): 25.4 µM
- Ki (Estrogen receptor beta [7]): 7.86 µM
- RBA (Estrogen receptor beta [8]): 0.1%
- IC50 at 72 h (in vitro): > 100 µM
- Activity [9]: Active
- IC50 (cells): > 30 µM

Structure (SMILES): COc1ccc(N(CC(F)(F)F)S(=O)(=O)C2CC3OC2C(c2ccc(OCCCCCC(=O)N[C@H](C(=O)N4C[C@H](O)C[C@H]4C(=O)NCc4ccc(-c5scnc5C)cc4)C(C)(C)C)cc2)=C3c2ccc(O)cc2)cc1 (some centres not stated)
- Ratio Ki [1]: 6.08
- IC50 (MDA-MB-231): > 100 µM
- IC50 (T47D [2]): > 30 µM
- Selectivity ratio [3]: 1.57
- IC50 (MCF7 [4]): > 10 µM
- IC50 (T47D [5]): > 30 µM
- Ki (Estrogen receptor): 1.85 µM
- Activity [10]: inactive
- IC50 (T47D [6]): > 30 µM
- Ki (Estrogen receptor beta [7]): 11.2 µM
- RBA (Estrogen receptor beta [8]): 0.07%
- IC50 at 72 h (in vitro): > 100 µM
- IC50 (cells): > 30 µM

Structure (SMILES): O=C(COc1ccc(C2CCC(=O)NC2=O)cc1)NCCNC(=O)COc1ccc(N(CC(F)(F)F)S(=O)(=O)C2CC3OC2C(c2ccc(O)cc2)=C3c2ccc(O)cc2)cc1 (configuration not stated)
- Ratio Ki [1]: 5.08
- IC50 (MDA-MB-231): > 100 µM
- IC50 (T47D [2]): 21.4 µM
- Selectivity ratio [3]: 1.31
- IC50 (MCF7 [4]): 1.14 µM
- IC50 (T47D [5]): 19.7 µM
- Ki (Estrogen receptor): 0.97 µM
- IC50 (T47D [6]): 17.3 µM
- Ki (Estrogen receptor beta [7]): 4.91 µM
- RBA (Estrogen receptor beta [8]): 0.16%
- IC50 at 72 h (in vitro): 13.7 µM
- Activity [9]: Active
- IC50 (cells): 21 µM

Structure (SMILES): Cc1ncsc1-c1ccc([C@H](C)NC(=O)[C@@H]2C[C@H](O)CN2C(=O)[C@@H](NC(=O)CCCCCOc2ccc(N(CC(F)(F)F)S(=O)(=O)C3CC4OC3C(c3ccc(O)cc3)=C4c3ccc(O)cc3)cc2)C(C)(C)C)cc1 (some centres not stated)
- Ratio Ki [1]: 6.2
- IC50 (MDA-MB-231): > 100 µM
- IC50 (T47D [2]): > 50 µM
- Selectivity ratio [3]: 1.6
- IC50 (MCF7 [4]): > 50 µM
- IC50 (T47D [5]): > 50 µM
- Activity [11]: inactive
- Ki (Estrogen receptor): 2.54 µM
- IC50 (T47D [6]): > 50 µM
- Ki (Estrogen receptor beta [7]): 15.7 µM
- RBA (Estrogen receptor beta [8]): 0.05%
- IC50 at 72 h (in vitro): > 100 µM
- IC50 (cells): > 50 µM

Structure (SMILES): CCN(c1ccc(OCCCCCC(=O)N[C@H](C(=O)N2C[C@@H](O)C[C@H]2C(=O)N[C@@H](C)c2ccc(-c3scnc3C)cc2)C(C)(C)C)cc1)S(=O)(=O)C1CC2OC1C(c1ccc(O)cc1)=C2c1ccc(O)cc1 (some centres not stated)
- Ratio Ki [1]: 3.15
- IC50 (MDA-MB-231): > 100 µM
- IC50 (T47D [2]): > 50 µM
- Selectivity ratio [3]: 0.81
- IC50 (MCF7 [4]): > 50 µM
- IC50 (T47D [5]): > 50 µM
- Activity [11]: inactive
- Ki (Estrogen receptor): 1.56 µM
- IC50 (T47D [6]): > 50 µM
- Ki (Estrogen receptor beta [7]): 4.91 µM
- RBA (Estrogen receptor beta [8]): 0.16%
- IC50 at 72 h (in vitro): > 100 µM
- IC50 (cells): > 50 µM

Structure (SMILES): CC/C(=C(\c1ccccc1)c1ccc(OCCN(C)C)cc1)c1ccccc1
- inhibition (MCF7 [12]): Active
- Activity (MCF7 [13]): Active
- Activity (Mus musculus): inactive
- Activity (MCF7 [14]): Active

Reference: ChEMBL document CHEMBL5338775, “Discovery of a Novel Class of PROTACs as Potent and Selective Estrogen Receptor α Degraders to Overcome Endocrine-Resistant Breast Cancer In Vitro and In Vivo” (J Med Chem, 2023)
